{
  "source": "patent US7879870B2",
  "about": "“Treatment of inflammatory and ulcerative diseases of the bowel with opioid antagonists” (priority 2006, dated 2011)",
  "key": {"[1]": {"test_system": "patients with active Crohn's disease", "assay": "Open-labeled pilot trial of LDN: safety and toxicity (adverse events, body weight)", "format": "in vivo, human", "procedure": "(§1) Eligibility was assessed by telephone, and potential candidates were scheduled for a screening visit. At the screening visit, patients were subjected to a history and physical examination and laboratory testing (chemistry panel, complete blood count [“CBC”], urinalysis, and erythrocyte sedimentation rate [“ESR”]). Patients were dispensed a seven-day diary to record symptoms of frequency of diarrhea, abdominal pain, and general well-being. Within fourteen days, patients returned for assessment and calculation of the CDAI score. Qualifying subjects were dispensed medication and given a new diary in order to calculate the subsequent month's CDAI score at the conclusion of this visit (baseline). Patients returned after two weeks for an interim visit to evaluate side effects and perform a CBC. Follow-up visits were scheduled for weeks 4, 8, 12, and 16.\nNonhematologic and hematologic toxicity were determined by the WHO criteria. See, Oken, et al., “Toxicity and response criteria of the Eastern Cooperative Oncology Group,” Am. J. Clin. Oncol. 5(6), 649-55 (1982)."}, "[2]": {"test_system": "patients with active Crohn's disease", "assay": "Open-labeled pilot trial of LDN in active Crohn's disease: CDAI score, response, remission, fistulas", "format": "in vivo, human", "text": "In the following detailed example, low dose naltrexone, an opioid antagonist, is shown to be a safe and effective treatment for Crohn's disease. In a human clinical experiment, eligible patients were both male and female, at least eighteen years of age, and with the confirmed diagnosis of Crohn's disease by either endocopic or radiographic procedures. Patients had moderate to severely active disease as defined by a Crohn's Disease Activity Index (CDAI score) of >220 and <450. See, Best, et al., “Development of a Crohn's disease activity index. National Cooperative Crohn's Disease Study,” Gastroenterology 70, 439-44 (1976). Patients taking stable doses of aminosalicylates, immunomodulators, corticosteroids, or antibiotics were permitted to enter the study, and they were continued at the same dosage throughout the trial. Women of childbearing age were permitted to enroll and, if not surgically sterile, were required to use adequate contraception (defined as oral or depot contraceptive, IUD, or barrier plus spermicide) for the duration of the study. These women were required to continue adequate contraception for three months after the completion of the study. Exclusion criteria included women who were pregnant or breastfeeding, subjects with an ileostomy, colostomy, ileorectal anastomosis, or short bowel syndrome from surgery, and patients with abnormal liver function tests. Subjects taking tacrolimus, cyclosporine, mycophenolate, or infliximab within eight weeks of enrollment were excluded.\nas §1\nQuality assurance of packaging and purity were confirmed an analytical research laboratory. Patients were treated with LDN orally each evening for three months. A monthly supply of medication was dispensed to patients. On the first visit, an additional ten-day supply of LDN was provided in the event of an appointment delay. Subjects were required to bring the vials to each appointment for counting and drug accountability; extra capsules were returned on the day of the visit and another month's supply dispensed. […]\n(§2) An intent-to-treat analysis was performed in which the available data from all evaluable patients were included in the statistical analysis. The parameters of measurement (CDAI scores, laboratory values, and quality of life surveys) were analyzed by a biostatistician comparing baseline values to those obtained monthly and four weeks post-therapy. A longitudinal data analysis based upon the linear mixed-effects model was applied using PROC MIXED program (available from SAS Institute Inc., Cary, N.C.). The Bonferroni statistical method was used to adjust significance where analysis including multiple comparisons to the baseline were made. P-values for binary outcomes response and remission were calculated using the exact test for binomial proportions."}, "[3]": {"test_system": "patients with active Crohn's disease", "assay": "Open-labeled pilot trial of LDN: quality of life surveys (IBDQ, SF-36 Health Survey)", "format": "in vivo, human", "procedure": "as §1\nQuality assurance of packaging and purity were confirmed an analytical research laboratory. Patients were treated with LDN orally each evening for three months. A monthly supply of medication was dispensed to patients. On the first visit, an additional ten-day supply of LDN was provided in the event of an appointment delay. Subjects were required to bring the vials to each appointment for counting and drug accountability; extra capsules were returned on the day of the visit and another month's supply dispensed.\nTo assess quality of life, patients completed two standardized quality of life surveys, the Inflammatory Bowel Disease Questionnaire (“IBDQ”) and SF-36 Health Survey. See, Irvine, et al., “Quality of life: a valid and reliable measure of therapeutic efficacy in the treatment of inflammatory bowel disease. Canadian Crohn's Relapse Prevention Trial Study Group,” Gastroenterology 106(2), 287-96 (1994); Brazier, et al., “Validating the SF-36 health survey questionnaire: new outcome measure for primary care,” BMJ305(6846), 160-04 (1992).\nas §2"}, "[4]": {"test_system": "human subjects", "assay": "Double-blinded placebo-controlled Phase II clinical trial, adverse events", "format": "in vivo", "details": "as of the date of application"}, "[5]": {"details": "one month (week 4) of LDN 4.5 mg/day"}, "[6]": {"details": "week 16, four weeks after discontinuation of LDN"}},
  "note": "Entries after “also recorded” stand apart in the source; their conditions may differ. Structures can show the parent of a compound that is named as a salt.",
  "data": [
    {"smiles": "O=C1CC[C@@]2(O)[C@H]3Cc4ccc(O)c5c4[C@@]2(CCN3CC2CC2)[C@H]1O5", "note": "[LDN, Naltrexone hydrochloride]", "values": [
      {"measurement": "Sleep disturbances, number of patients", "setting": "[1]; 17 patients enrolled", "value": 7, "unit": "patients"},
      {"measurement": "Subjects who changed timing of LDN from evening to morning due to insomnia", "setting": "[1]; 17 patients enrolled", "value": "Five"},
      {"measurement": "Unusual dreams, number of patients reporting", "setting": "[1]; 17 patients enrolled", "value": "one"},
      {"measurement": "Dose reduction for sleep disturbances", "setting": "[1]; in vivo", "value": "In no instance was a dose reduction necessary"},
      {"measurement": "Safety profile", "setting": "[1]; pilot study, 4.5 mg daily", "value": "infrequent and minor side effects and no known suppression of immunity or increased risk of secondary infections"},
      {"measurement": "Body weight", "setting": "[1]; screening visit through week 16", "value": "no significant change in body weight"},
      {"measurement": "Fistulas in the two subjects with fistulas", "setting": "[2]; LDN therapy, not previously responded to infliximab, hydrochloride", "value": "closure of the fistulas"},
      {"measurement": "Enrolled patients who achieved remission (fraction in words)", "setting": "[2]; at some point during LDN treatment", "value": "Two-thirds"},
      {"measurement": "Patients who achieved a remission", "setting": "[2]; at some point during the 16-week trial", "value": 67, "unit": "%"},
      {"measurement": "CDAI scores versus baseline (in words)", "setting": "[2]; four weeks after completing therapy, hydrochloride", "value": "remained lower than baseline; also recorded: continued improvement in CDAI scores"},
      {"measurement": "CDAI scores with LDN versus baseline (in words)", "setting": "[2]; on therapy, 4.5 mg/day, baseline mean CDAI 356±27", "value": "decreased significantly"},
      {"measurement": "Patients in remission (CDAI score of 150 points or less)", "setting": "[2]; [5]", "value": 29, "unit": "%"},
      {"measurement": "Patients with response to therapy (decrease in CDAI score by 70 points)", "setting": "[2]; [5]", "value": 76, "unit": "%"},
      {"measurement": "Mean CDAI score, decrease from baseline", "setting": "[2]; week 4 of LDN 4.5 mg/day by mouth each evening, 17 patients", "value": 41, "unit": "%"},
      {"measurement": "Patients in remission (CDAI score of 150 points or less)", "setting": "[2]; week 8 of LDN", "value": 53, "unit": "%"},
      {"measurement": "Patients with response to therapy (decrease in CDAI score by 70 points)", "setting": "[2]; week 8 of LDN", "value": 88, "unit": "%"},
      {"measurement": "Mean CDAI score, decrease from baseline", "setting": "[2]; week 8 of LDN 4.5 mg/day", "value": 55, "unit": "%"},
      {"measurement": "Patients in remission (CDAI score of 150 points or less)", "setting": "[2]; week 12 of LDN", "value": 47, "unit": "%"},
      {"measurement": "Patients with response to therapy (decrease in CDAI score by 70 points)", "setting": "[2]; week 12 of LDN", "value": 88, "unit": "%"},
      {"measurement": "Mean CDAI score, decrease from baseline", "setting": "[2]; week 12 of LDN 4.5 mg/day", "value": 49, "unit": "%"},
      {"measurement": "Mean CDAI score, less than baseline", "setting": "[2]; [6]", "value": 45, "unit": "%"},
      {"measurement": "Patients in remission (CDAI score of 150 points or less)", "setting": "[2]; [6]", "value": 33, "unit": "%"},
      {"measurement": "Patients with response to therapy (decrease in CDAI score by 70 points)", "setting": "[2]; [6]", "value": 73, "unit": "%"},
      {"measurement": "SF-36 physical function, greater than baseline", "setting": "[3]; 4 and 8 weeks of LDN", "value": 23, "unit": "%"},
      {"measurement": "Quality of life by both surveys (IBDQ and SF-36) compared to baseline", "setting": "[3]; on LDN therapy", "value": "significant improvement; also recorded: improved the quality of life"},
      {"measurement": "SF-36 health perception, greater than baseline", "setting": "[3]; week 8 of LDN", "value": 33, "unit": "%"},
      {"measurement": "SF-36 health perception, greater than baseline", "setting": "[3]; week 12 of LDN", "value": 49, "unit": "%"},
      {"measurement": "SF-36 social function, greater than baseline", "setting": "[3]; weeks 4, 8 and 12, only statistically different at week 8", "value": 70, "unit": "%"},
      {"measurement": "SF-36 bodily pain, improvement", "setting": "[3]; weeks 4, 8 and 12 of LDN", "value": "61-65%"},
      {"measurement": "SF-36 emotional health versus baseline", "setting": "[3]; weeks 4, 8 and 12 of LDN", "value": "comparable to baseline values"},
      {"measurement": "SF-36 physical role scores, improvement", "setting": "[3]; weeks 4, 8 and 12 of LDN", "value": "5- to 8 fold"},
      {"measurement": "SF-36 role-emotional versus baseline", "setting": "[3]; weeks 4, 8 and 12 of LDN", "value": "comparable to baseline values"},
      {"measurement": "IBDQ survey, quality of life compared to baseline", "setting": "[3]; weeks 4, 8 and 12 on LDN and one month after completion", "value": "significant improvement in quality of life"},
      {"measurement": "SF-36 energy scores, greater than at initiation of therapy", "setting": "[3]; weeks 8 and 12 of LDN", "value": "at least 2 fold"},
      {"measurement": "Serious adverse events", "setting": "[4]", "value": "has not revealed any serious adverse events"}
    ]}
  ]
}
